Tested on: MC38_sgStk11 tumor
Assay: Anti-tumor efficacy in murine subcutaneous MC38_sgStk11 tumor model
Type: in vivo, Mus musculus
Conditions: for T/C / TGI %: day 11
Protocol: Summary: An in vivo anti-tumor efficacy of double combination treatment of Anti-PD1 and HDAC1,2-selective inhibitor in a murine subcutaneous MC38_sgStk11 tumor model in […] mice was performed.
96 mice plus 39 spare mice of the species: Mus musculus: strain: C57BL/6; age 8-10 weeks; sex: female; and body weight: 16.9-20.0 g
The MC38_sgStk11 tumor cells were maintained in vitro as a monolayer culture in DMEM+2 mM glutamine supplemented with about 10% heat inactivated fetal bovine serum, about 100 U/ml penicillin and 100 μg/ml streptomycin at about 37° C. in an atmosphere of about 5% CO2 in air. The tumor cells were routinely sub-cultured twice weekly by trypsin-EDTA treatment. The cells growing in an exponential growth phase were harvested and counted for tumor inoculation.
Each mouse was inoculated subcutaneously at the right upper flank with MC38_sgStk11 tumor cells (0.5×106) in 0.1 ml of PBS for tumor development. Treatments were started on day 4 after tumor inoculation when the average tumor size reached 52 mm^3. The animals were assigned into groups according to a sorting standard operating procedures based upon their tumor volumes. Each group consisted of 8 tumor bearing mice. The testing article was administrated to the mice according to the predetermined regimen as shown in the experimental design table (Table 1-1).
All the procedures related to animal handling, care and the treatment in the study were performed according to the guidelines approved by the Institutional Animal Care and Use Committee (IACUC) of vendor following the guidance of the Association for Assessment and Accreditation of Laboratory Animal Care (AAALAC). At the time of routine monitoring, the animals were daily checked for any effects of tumor growth and treatments on normal behavior such as mobility, food and water consumption, body weight gain/loss (body weights were measured three times per week), eye/hair matting and any other abnormal effect as stated in the protocol. Death and observed clinical signs were recorded on the basis of the numbers of animals within each subset.
A primary endpoint was to see if the tumor growth could be delayed or mice could be cured. Tumor size was measured three times per week in two dimensions using a caliper, and the volume was expressed in mm3 using the formula: V=0.5 a×b2 where a and b are the long and short diameters of the tumor, respectively. The T/C value (in percent) is an indication of antitumor effectiveness; T and C are the mean volume of the treated and control groups, respectively, on a given day. TGI is calculated for each group using the formula: TGI (%)=[1−(Ti−T0)/(Vi−V0)]×100; Ti is the average tumor volume of a treatment group on a given day, T0 is the average tumor volume of the treatment group on the day of treatment start, Vi is the average tumor volume of the vehicle control group on the same day with Ti, and V0 is the average tumor volume of the vehicle group on the day of treatment start.
Statistical analysis of difference in the tumor volume among the groups were conducted on the data obtained at the best therapeutic time point at the day 11 after the start of treatment. A one-way ANOVA was performed for comparisons between groups. The survival analysis between groups was carried out with Kaplan-Meier test. p<0.05 was considered to be statistically significant.

[1] = Gr 5: Compound I 75 mg/kg PO QD + Anti-IgG2a 10 mg/kg IP BIW
[2] = Gr 6: Compound I 150 mg/kg D0-D4, 100 mg/kg D5-D48 PO QD + Anti-IgG2a 10 mg/kg IP BIW

## C[S@@](=N)(=O)c1ccc(C(=O)Nc2cc(-c3ccc(F)cc3)ccc2N)cc1 [Compound I, (R)—N-(4-amino-4′-fluoro-[1,1′-biphenyl]-3-yl)-4-(S-methylsulfonimidoyl)benzamide]
[1]
  PR (partial regression): 0.0%
  T/C: 29.7%
  TGI %: 72.1%
Gr 5: Compound I 75 mg/kg PO QD + Anti-IgG2a 10 mg/kg IP BIW, day 0 of treatment
  Tumor Volume: 52 ± 2 mm^3
Gr 5: Compound I 75 mg/kg PO QD + Anti-IgG2a 10 mg/kg IP BIW, day 2 of treatment
  Tumor Volume: 218 ± 12 mm^3
Gr 5: Compound I 75 mg/kg PO QD + Anti-IgG2a 10 mg/kg IP BIW, day 4 of treatment
  Tumor Volume: 485 ± 37 mm^3
Gr 5: Compound I 75 mg/kg PO QD + Anti-IgG2a 10 mg/kg IP BIW, day 7 of treatment
  Tumor Volume: 576 ± 45 mm^3
Gr 5: Compound I 75 mg/kg PO QD + Anti-IgG2a 10 mg/kg IP BIW, day 9 of treatment
  Tumor Volume: 622 ± 44 mm^3
Gr 5: Compound I 75 mg/kg PO QD + Anti-IgG2a 10 mg/kg IP BIW, day 11 of treatment
  Tumor Volume: 632 ± 55 mm^3
Gr 5: Compound I 75 mg/kg PO QD + Anti-IgG2a 10 mg/kg IP BIW, day 14 of treatment
  Tumor Volume: 580 ± 85 mm^3
Gr 5: Compound I 75 mg/kg PO QD + Anti-IgG2a 10 mg/kg IP BIW, day 16 of treatment
  Tumor Volume: 557 ± 101 mm^3
Gr 5: Compound I 75 mg/kg PO QD + Anti-IgG2a 10 mg/kg IP BIW, day 18 of treatment
  Tumor Volume: 536 ± 109 mm^3
Gr 5: Compound I 75 mg/kg PO QD + Anti-IgG2a 10 mg/kg IP BIW, day 21 of treatment
  Tumor Volume: 514 ± 117 mm^3
Gr 5: Compound I 75 mg/kg PO QD + Anti-IgG2a 10 mg/kg IP BIW, day 23 of treatment
  Tumor Volume: 502 ± 138 mm^3
Gr 5: Compound I 75 mg/kg PO QD + Anti-IgG2a 10 mg/kg IP BIW, day 25 of treatment
  Tumor Volume: 477 ± 151 mm^3
Gr 5: Compound I 75 mg/kg PO QD + Anti-IgG2a 10 mg/kg IP BIW, day 28 of treatment
  Tumor Volume: 551 ± 171 mm^3
Gr 5: Compound I 75 mg/kg PO QD + Anti-IgG2a 10 mg/kg IP BIW, day 30 of treatment
  Tumor Volume: 815 ± 291 mm^3
Gr 5: Compound I 75 mg/kg PO QD + Anti-IgG2a 10 mg/kg IP BIW, day 32 of treatment
  Tumor Volume: 1001 ± 375 mm^3
Gr 5: Compound I 75 mg/kg PO QD + Anti-IgG2a 10 mg/kg IP BIW, day 34 of treatment
  Tumor Volume: 827 ± 268 mm^3
Gr 5: Compound I 75 mg/kg PO QD + Anti-IgG2a 10 mg/kg IP BIW, day 38 of treatment
  Tumor Volume: 14 mm^3
Gr 5: Compound I 75 mg/kg PO QD + Anti-IgG2a 10 mg/kg IP BIW, day 42 of treatment
  Tumor Volume: 13 mm^3
Gr 5: Compound I 75 mg/kg PO QD + Anti-IgG2a 10 mg/kg IP BIW, day 45 of treatment
  Tumor Volume: 6 mm^3
Gr 5: Compound I 75 mg/kg PO QD + Anti-IgG2a 10 mg/kg IP BIW, day 49 after start of treatment
  Tumor Volume: 0 mm^3
Gr 5: Compound I 75 mg/kg PO QD + Anti-IgG2a 10 mg/kg IP BIW, day 52 after start of treatment
  Tumor Volume: 0 mm^3
Gr 5: Compound I 75 mg/kg PO QD + Anti-IgG2a 10 mg/kg IP BIW, day 56 after start of treatment
  Tumor Volume: 0 mm^3
Gr 5: Compound I 75 mg/kg PO QD + Anti-IgG2a 10 mg/kg IP BIW, day 59 after start of treatment
  Tumor Volume: 0 mm^3
Gr 5: Compound I 75 mg/kg PO QD + Anti-IgG2a 10 mg/kg IP BIW, day 63 after start of treatment
  Tumor Volume: 0 mm^3
Gr 5: Compound I 75 mg/kg PO QD + Anti-IgG2a 10 mg/kg IP BIW, day 66 after start of treatment
  Tumor Volume: 0 mm^3
[2]
  CR (complete regression): 0.0%
  ORR (CR + PR): 0.0%
  PR (partial regression): 0.0%
  T/C: 41.2%
  TGI %: 60.2%
Gr 6: Compound I 150 mg/kg D0-D4, 100 mg/kg D5-D48 PO QD + Anti-IgG2a 10 mg/kg IP BIW, day 0 of treatment
  Tumor Volume: 52 ± 2 mm^3
Gr 6: Compound I 150 mg/kg D0-D4, 100 mg/kg D5-D48 PO QD + Anti-IgG2a 10 mg/kg IP BIW, day 2 of treatment
  Tumor Volume: 205 ± 14 mm^3
Gr 6: Compound I 150 mg/kg D0-D4, 100 mg/kg D5-D48 PO QD + Anti-IgG2a 10 mg/kg IP BIW, day 4 of treatment
  Tumor Volume: 450 ± 40 mm^3
Gr 6: Compound I 150 mg/kg D0-D4, 100 mg/kg D5-D48 PO QD + Anti-IgG2a 10 mg/kg IP BIW, day 7 of treatment
  Tumor Volume: 508 ± 40 mm^3
Gr 6: Compound I 150 mg/kg D0-D4, 100 mg/kg D5-D48 PO QD + Anti-IgG2a 10 mg/kg IP BIW, day 9 of treatment
  Tumor Volume: 636 ± 19 mm^3
Gr 6: Compound I 150 mg/kg D0-D4, 100 mg/kg D5-D48 PO QD + Anti-IgG2a 10 mg/kg IP BIW, day 11 of treatment
  Tumor Volume: 878 ± 66 mm^3
Gr 6: Compound I 150 mg/kg D0-D4, 100 mg/kg D5-D48 PO QD + Anti-IgG2a 10 mg/kg IP BIW, day 14 of treatment
  Tumor Volume: 1090 ± 167 mm^3
Gr 6: Compound I 150 mg/kg D0-D4, 100 mg/kg D5-D48 PO QD + Anti-IgG2a 10 mg/kg IP BIW, day 16 of treatment
  Tumor Volume: 1236 ± 211 mm^3
Gr 6: Compound I 150 mg/kg D0-D4, 100 mg/kg D5-D48 PO QD + Anti-IgG2a 10 mg/kg IP BIW, day 18 of treatment
  Tumor Volume: 1414 ± 243 mm^3
Gr 6: Compound I 150 mg/kg D0-D4, 100 mg/kg D5-D48 PO QD + Anti-IgG2a 10 mg/kg IP BIW, day 21 of treatment
  Tumor Volume: 1728 ± 366 mm^3
Gr 6: Compound I 150 mg/kg D0-D4, 100 mg/kg D5-D48 PO QD + Anti-IgG2a 10 mg/kg IP BIW, day 23 of treatment
  Tumor Volume: 2198 ± 472 mm^3
Gr 6: Compound I 150 mg/kg D0-D4, 100 mg/kg D5-D48 PO QD + Anti-IgG2a 10 mg/kg IP BIW, day 25 of treatment
  Tumor Volume: 2054 ± 638 mm^3
Gr 6: Compound I 150 mg/kg D0-D4, 100 mg/kg D5-D48 PO QD + Anti-IgG2a 10 mg/kg IP BIW, day 28 of treatment
  Tumor Volume: 1705 ± 330 mm^3
Gr 6: Compound I 150 mg/kg D0-D4, 100 mg/kg D5-D48 PO QD + Anti-IgG2a 10 mg/kg IP BIW, day 30 of treatment
  Tumor Volume: 1840 ± 326 mm^3
Gr 6: Compound I 150 mg/kg D0-D4, 100 mg/kg D5-D48 PO QD + Anti-IgG2a 10 mg/kg IP BIW, day 32 of treatment
  Tumor Volume: 1949 ± 395 mm^3
Gr 6: Compound I 150 mg/kg D0-D4, 100 mg/kg D5-D48 PO QD + Anti-IgG2a 10 mg/kg IP BIW, day 34 of treatment
  Tumor Volume: 2089 ± 389 mm^3
